# pIC50: −log10 of the molar value. Read-outs that look alike come from different tables or passages of the source. Square brackets hold non-standard residues; d marks the D form. Peptide text beside a SMILES is read from it. * marks the point of attachment. ξ: configuration not given here. Biphenylcarbonyl(4'-Bu) = CCCCc1ccc(-c2ccc(C(=O)*)cc2)cc1; Benzoyl(4-hexyl) = CCCCCCc1ccc(C(=O)*)cc1; NMeThr(3ξ) = CN[C@H](C(=O)O)C(C)O; Myristoyl = CCCCCCCCCCCCCC(=O)*; Thr(3ξ) = CC(O)[C@H](N)C(=O)O; Decanoyl = CCCCCCCCCC(=O)*; boroGly = OB(O)CN*; ξA = CC(N)C(=O)O
# Columns and labels:
# [1] = system: Escherichia coli MC4100 IMP-4213 in which transcription of the SPase encoding gene is under control of a tetracycline inducible promoter; conditions: Method A; E. coli MC4100 IMP-4213 with decreased SPase expression; 35° C., 22 hours
# Experimental: (§1) In vitro antimicrobial activity of each compound was determined by measuring minimal inhibitor concentrations (MICs) using the broth micro-dilution technique as approved by the Clinical and Laboratory Standards Institute (CLSI). […] Cells were inoculated onto Trypyticase Soy Agar or Luria Agar containing 16 ng/ml of anhydrotetracycline respectively and grown at 35° C. for 20 hours. Inocula suspensions were made by scraping cells into 1 mL of testing media (cation adjusted Mueller Hinton Broth supplemented with 0.002% v/v Tween-80) and diluting to a final OD600 nm of 0.01.
# (§2) Test compounds were prepared in DMSO at a concentration of 10 mg/ml. […] Inocula suspensions were added to the two fold serial dilutions of test compounds to a final density of OD OD600 nm of 0.0005 and incubated stationary at 35° C. for 22 hours, after which the plates were examined visually.
# [2] = system: Methicillin Resistant Staphylococcus aureus strain USA 300 (NRS384)
# Experimental: as §1, §2
# S. aureus SPase = S. aureus SPase (Staphylococcus aureus, UniProt P0A070); test: biochemical
# Chain of S. aureus SPase (P0A070 whole entry): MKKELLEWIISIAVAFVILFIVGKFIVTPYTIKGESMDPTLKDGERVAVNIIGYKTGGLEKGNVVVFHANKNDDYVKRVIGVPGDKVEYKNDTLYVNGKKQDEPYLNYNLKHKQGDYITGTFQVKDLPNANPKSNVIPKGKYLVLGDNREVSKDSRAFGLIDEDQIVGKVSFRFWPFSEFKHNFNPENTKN
# E. coli SPase = E. coli SPase (Escherichia coli, UniProt P00803); test: Biochemical SPase activity assay (fluorogenic peptide substrate), E. coli enzyme
# Chain of E. coli SPase (P00803 whole entry): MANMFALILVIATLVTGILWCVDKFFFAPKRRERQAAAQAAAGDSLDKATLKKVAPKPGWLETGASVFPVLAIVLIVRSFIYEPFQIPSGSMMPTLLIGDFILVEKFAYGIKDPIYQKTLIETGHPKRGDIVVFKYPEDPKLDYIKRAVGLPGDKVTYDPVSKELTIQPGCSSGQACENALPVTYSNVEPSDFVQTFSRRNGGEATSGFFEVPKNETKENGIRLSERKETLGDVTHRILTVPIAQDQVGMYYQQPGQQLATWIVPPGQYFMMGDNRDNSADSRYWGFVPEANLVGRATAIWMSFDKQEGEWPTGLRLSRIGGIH
# [3] = Method A, MRSA USA 300 (NRS384), 35° C., 22 hours
Compound,MIC (μg/mL) E. coli [1] [µg/mL],"MIC (μg/mL) S. aureus ([2]; USA 300, 22 h) [µg/mL]",pIC50 (S. aureus SPase),"MIC (μg/mL) S. aureus [2, 3] [µg/mL]",pIC50 (E. coli SPase)
CCCCCCCCCCCCCC(=O)N[C@H](CO)C(=O)N[C@H](C)C(=O)NCC(=O)N(C)[C@H](C(=O)N[C@@H](C)C(=O)N[C@@H](CC(C)C)C(=O)NC(C)C(=O)C(=O)NC)C(C)O (mixture of isomers) [Compound 110],>64,>64,6.82,–,–
CCCCCCCCCC(=O)N[C@@H](CC(C)C)C(=O)N[C@H](C(=O)N1CCC[C@@H]1C(=O)N[C@H](C(=O)N[C@@H](C)C(=O)N[C@@H](Cc1ccc(O)cc1)C(=O)NC(C)C(=O)C(=O)NC)C(C)O)C(C)O (mixture of isomers) [Compound 111],>64,–,4.74,>64,5.31
CCCCCCCCCCCCCC(=O)N[C@@H](CC(C)C)C(=O)N[C@H](C(=O)N1CCC[C@@H]1C(=O)N[C@H](C(=O)N[C@@H](C)C(=O)N[C@@H](Cc1ccc(O)cc1)C(=O)NC(C)C(=O)C(=O)NC)C(C)O)C(C)O (mixture of isomers) [Compound 112],>64,–,5.47,>64,4.51
CCCCCCc1ccc(C(=O)N[C@H](CO)C(=O)N[C@H](C)C(=O)NCC(=O)N(C)[C@H](C(=O)N[C@@H](C)C(=O)N[C@@H](CC(N)=O)C(=O)NCC=O)C(C)O)cc1 (some centres unmarked) [Compound 101] ({Benzoyl(4-hexyl)}-[dS][dA]G[NMeThr(3ξ)]ANG-aldehyde),>64,–,7.07,>64,4.96
CCCCCCc1ccc(C(=O)N[C@H](CO)C(=O)N[C@H](C)C(=O)NCC(=O)N(C)[C@H](C(=O)N[C@@H](C)C(=O)N[C@@H](CC(C)C)C(=O)NCC=O)C(C)O)cc1 (some centres unmarked) [Compound 102] ({Benzoyl(4-hexyl)}-[dS][dA]G[NMeThr(3ξ)]ALG-aldehyde),>64,–,8.01,>64,4.74
CCCCCCCCCCCCCC(=O)N[C@@H](CC(C)C)C(=O)N[C@H](C(=O)N1CCC[C@@H]1C(=O)N[C@H](C(=O)N[C@@H](C)C(=O)N[C@@H](CC(N)=O)C(=O)NCC=O)C(C)O)C(C)O (some centres unmarked) [Compound 103] (Myristoyl-L[Thr(3ξ)][dP][Thr(3ξ)]ANG-aldehyde),–,–,6.96,>64,4.96
CCCCCCCCCCCCCC(=O)N[C@H](CO)C(=O)N[C@H](C)C(=O)NCC(=O)N(C)[C@H](C(=O)N[C@@H](C)C(=O)N[C@@H](CC(C)C)C(=O)NCC=O)C(C)O (some centres unmarked) [Compound 104] (Myristoyl-[dS][dA]G[NMeThr(3ξ)]ALG-aldehyde),–,–,7.74,8,5.05
CCCCCCCCCCCCCC(=O)N[C@@H](CC(C)C)C(=O)N[C@H](C(=O)N1CCC[C@@H]1C(=O)N[C@H](C(=O)N[C@@H](C)C(=O)N[C@@H](Cc1ccc(O)cc1)C(=O)NCC=O)C(C)O)C(C)O (some centres unmarked) [Compound 105] (Myristoyl-L[Thr(3ξ)][dP][Thr(3ξ)]AYG-aldehyde),>64,–,–,>64,–
CCCCCCCCCCCCCC(=O)N[C@@H](CC(C)C)C(=O)N[C@H](C(=O)N1CCC[C@@H]1C(=O)N[C@H](C(=O)N[C@@H](C)C(=O)N[C@@H](CC(N)=O)C(=O)NC(C)C=O)C(C)O)C(C)O (some centres unmarked) [Compound 108] (Myristoyl-L[Thr(3ξ)][dP][Thr(3ξ)]AN[ξA]-aldehyde),>64,–,5.68,64,4.70
CCCCCCCCCC(=O)N[C@@H](CC(C)C)C(=O)N[C@H](C(=O)N1CCC[C@@H]1C(=O)N[C@H](C(=O)N[C@@H](C)C(=O)N[C@@H](Cc1ccc(O)cc1)C(=O)NC(C)C=O)C(C)O)C(C)O (some centres unmarked) [Compound 109] (Decanoyl-L[Thr(3ξ)][dP][Thr(3ξ)]AY[ξA]-aldehyde),>64,–,5.31,>64,–
CCCCc1ccc(-c2ccc(C(=O)N[C@H](CO)C(=O)N[C@H](C)C(=O)NCC(=O)N[C@H](C(=O)N[C@@H](C)C(=O)N[C@@H](CC(N)=O)C(=O)NCB(O)O)C(C)O)cc2)cc1 (some centres unmarked) [Compound 115] ({Biphenylcarbonyl(4'-Bu)}-[dS][dA]G[Thr(3ξ)]AN-boroGly),>64,–,6.77,>64,6.00
